According to the NIST ThermoML archive (doi:10.1016/j.fluid.2014.03.019):
± gives the expanded uncertainty stated by the source.

Tests used:
[1] = wn = mass fraction of the nth substance listed; conditions: Liquid, Vibrating tube method
[2] = refractive index (Na D-line) (dimensionless); wn = mass fraction of the nth substance listed; conditions: Liquid, Standard Abbe refractometry

Row | mass density ([1]; 288.15 K, w1 = 0.0187) | mass density ([1]; 298.15 K, w1 = 0.0336) | refractive index ([2]; 288.15 K, w1 = 0.0187) | refractive index ([2]; 298.15 K, w1 = 0.0336) | mass density ([1]; 288.15 K, w1 = 0.2596) | mass density ([1]; 298.15 K, w1 = 0.2561) | refractive index ([2]; 288.15 K, w1 = 0.2596) | refractive index ([2]; 298.15 K, w1 = 0.2561) | Compound
1 | 1023.17 ± 0.34 kg/m3 | 1035.63 ± 0.26 kg/m3 | 1.341 ± 0.0005 | 1.3452 ± 0.0004 | – | – | – | – | O=B[O-].[Li+] [lithium metaborate] + O
2 | – | – | – | – | 1246.65 ± 1.8 kg/m3 | 1245.02 ± 2.7 kg/m3 | 1.3788 ± 0.0005 | 1.3771 ± 0.0006 | O=S(=O)([O-])[O-].[Li+].[Li+] [lithium sulfate] + O
